{
  "source": "paper PMC3651692",
  "about": "(Bioorganic & medicinal chemistry letters, 2013)",
  "data": [
    {"target": "μ-opioid receptor (MOR) (Homo sapiens, UniProt P35372)", "sequence (P35372 whole entry, species assumed)": "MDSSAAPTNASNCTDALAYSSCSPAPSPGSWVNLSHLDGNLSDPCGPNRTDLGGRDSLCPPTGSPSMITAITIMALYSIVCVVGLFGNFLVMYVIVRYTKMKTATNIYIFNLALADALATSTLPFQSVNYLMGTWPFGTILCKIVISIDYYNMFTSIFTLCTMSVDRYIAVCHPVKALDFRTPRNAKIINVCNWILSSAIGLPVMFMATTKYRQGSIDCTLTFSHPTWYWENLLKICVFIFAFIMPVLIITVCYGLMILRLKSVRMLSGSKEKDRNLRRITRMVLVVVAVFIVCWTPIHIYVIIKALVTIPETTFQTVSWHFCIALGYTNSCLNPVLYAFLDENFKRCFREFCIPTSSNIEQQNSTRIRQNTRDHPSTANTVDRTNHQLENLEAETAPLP", "format": "binding", "values": [
      {"compound": "COC(=O)[C@@H]1C[C@H](OC(=O)/C=C\\C(=O)O)C(=O)[C@H]2[C@@]1(C)CC[C@H]1C(=O)O[C@H](c3ccoc3)C[C@]21C", "note": "[Compound 13]", "Affinities Ki± SD MOR": "no affinity"}
    ]},
    {"target": "δ-opioid receptor (DOR) (Homo sapiens, UniProt P41143)", "sequence (P41143 whole entry)": "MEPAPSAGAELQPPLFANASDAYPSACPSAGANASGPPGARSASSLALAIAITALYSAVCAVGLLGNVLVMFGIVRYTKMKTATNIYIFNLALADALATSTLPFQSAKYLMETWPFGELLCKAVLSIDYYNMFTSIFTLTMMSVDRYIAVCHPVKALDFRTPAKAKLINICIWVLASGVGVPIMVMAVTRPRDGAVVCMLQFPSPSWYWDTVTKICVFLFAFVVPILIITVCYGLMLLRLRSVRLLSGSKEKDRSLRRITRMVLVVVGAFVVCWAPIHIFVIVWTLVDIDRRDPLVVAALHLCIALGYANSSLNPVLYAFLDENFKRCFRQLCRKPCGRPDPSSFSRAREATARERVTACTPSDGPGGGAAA", "format": "binding", "values": [
      {"compound": "COC(=O)[C@@H]1C[C@H](OC(=O)/C=C\\C(=O)O)C(=O)[C@H]2[C@@]1(C)CC[C@H]1C(=O)O[C@H](c3ccoc3)C[C@]21C", "note": "[Compound 13]", "Affinities Ki± SD DOR": "no affinity"}
    ]},
    {"target": "κ-opioid receptor (KOR) (Homo sapiens, UniProt P41145)", "sequence (P41145 whole entry)": "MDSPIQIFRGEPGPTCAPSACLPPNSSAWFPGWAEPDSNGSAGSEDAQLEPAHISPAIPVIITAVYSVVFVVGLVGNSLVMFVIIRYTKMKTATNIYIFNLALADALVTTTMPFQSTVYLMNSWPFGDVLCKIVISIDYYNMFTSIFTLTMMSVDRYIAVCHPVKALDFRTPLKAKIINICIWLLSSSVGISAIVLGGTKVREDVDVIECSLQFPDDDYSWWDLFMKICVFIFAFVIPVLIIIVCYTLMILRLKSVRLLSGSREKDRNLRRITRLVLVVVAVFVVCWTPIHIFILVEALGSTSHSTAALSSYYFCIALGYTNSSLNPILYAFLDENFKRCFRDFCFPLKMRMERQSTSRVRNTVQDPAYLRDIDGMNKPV", "format": "binding", "units": {"Fold reduction of KOR affinity compared to 1": "fold"}, "values": [
      {"compound": "COC(=O)[C@@H]1C[C@H](OC(=O)CCCC(=O)O)C(=O)[C@H]2[C@@]1(C)CC[C@H]1C(=O)O[C@H](c3ccoc3)C[C@]21C", "note": "[Compound 12]", "Selectivity DOR/KOR": ">38"},
      {"compound": "CCOC(=O)CC(=O)O[C@H]1C[C@@H](C(=O)OC)[C@]2(C)CC[C@H]3C(=O)O[C@H](c4ccoc4)C[C@]3(C)[C@H]2C1=O", "note": "[Compound 5]", "Fold reduction of KOR affinity compared to 1": 3, "Selectivity DOR/KOR": ">476", "Selectivity MOR/KOR": ">476"},
      {"compound": "COC(=O)/C=C/C(=O)O[C@H]1C[C@@H](C(=O)OC)[C@]2(C)CC[C@H]3C(=O)O[C@H](c4ccoc4)C[C@]3(C)[C@H]2C1=O", "note": "[Compound 14]", "Fold reduction of KOR affinity compared to 1": 6, "Selectivity DOR/KOR": ">256"},
      {"compound": "CCOC(=O)CCC(=O)O[C@H]1C[C@@H](C(=O)OC)[C@]2(C)CC[C@H]3C(=O)O[C@H](c4ccoc4)C[C@]3(C)[C@H]2C1=O", "note": "[Compound 8]", "Fold reduction of KOR affinity compared to 1": 70, "Selectivity DOR/KOR": ">23", "Selectivity MOR/KOR": ">23"},
      {"compound": "COC(=O)CCC(=O)O[C@H]1C[C@@H](C(=O)OC)[C@]2(C)CC[C@H]3C(=O)O[C@H](c4ccoc4)C[C@]3(C)[C@H]2C1=O", "note": "[Compound 7]", "Fold reduction of KOR affinity compared to 1": 6, "Selectivity DOR/KOR": ">277", "Selectivity MOR/KOR": ">277"},
      {"compound": "COC(=O)CCCCC(=O)O[C@H]1C[C@@H](C(=O)OC)[C@]2(C)CC[C@H]3C(=O)O[C@H](c4ccoc4)C[C@]3(C)[C@H]2C1=O", "note": "[Compound 10]", "Selectivity DOR/KOR": ">17", "Selectivity MOR/KOR": ">17"},
      {"compound": "COC(=O)[C@@H]1C[C@H](OC(=O)CC(=O)OC(C)(C)C)C(=O)[C@H]2[C@@]1(C)CC[C@H]1C(=O)O[C@H](c3ccoc3)C[C@]21C", "note": "[Compound 6]", "Fold reduction of KOR affinity compared to 1": 24, "Selectivity DOR/KOR": ">67", "Selectivity MOR/KOR": ">67"},
      {"compound": "COC(=O)CCCC(=O)O[C@H]1C[C@@H](C(=O)OC)[C@]2(C)CC[C@H]3C(=O)O[C@H](c4ccoc4)C[C@]3(C)[C@H]2C1=O", "note": "[Compound 9]", "Fold reduction of KOR affinity compared to 1": 49, "Selectivity DOR/KOR": ">33"},
      {"compound": "COC(=O)CC(=O)O[C@H]1C[C@@H](C(=O)OC)[C@]2(C)CC[C@H]3C(=O)O[C@H](c4ccoc4)C[C@]3(C)[C@H]2C1=O", "note": "[Compound 4]", "Selectivity MOR/KOR": ">5000"},
      {"compound": "COC(=O)[C@@H]1C[C@H](OC(=O)/C=C\\C(=O)O)C(=O)[C@H]2[C@@]1(C)CC[C@H]1C(=O)O[C@H](c3ccoc3)C[C@]21C", "note": "[Compound 13]", "Affinities Ki± SD KOR": "no affinity"},
      {"compound": "COC(=O)[C@@H]1C[C@H](OC(=O)c2ccccc2C(=O)O)C(=O)[C@H]2[C@@]1(C)CC[C@H]1C(=O)O[C@H](c3ccoc3)C[C@]21C", "note": "[Compound 16]", "Selectivity DOR/KOR": ">4", "Selectivity MOR/KOR": ">4"},
      {"compound": "CCOC(=O)/C=C/C(=O)O[C@H]1C[C@@H](C(=O)OC)[C@]2(C)CC[C@H]3C(=O)O[C@H](c4ccoc4)C[C@]3(C)[C@H]2C1=O", "note": "[Compound 15]", "Selectivity DOR/KOR": ">23"}
    ]}
  ]
}
